Test results published in patent US7956216B2, “Alpha-helical mimetics” (The Walter and Eliza Hall Institute of Medical Research, priority 2006, dated 2011).
Read-outs that look alike come from different tables or passages of the source. One block for each compound: values may come before it.

Legend:
[1] = target: T1, GST tagged Bclw ΔC29 protein (Homo sapiens, UniProt Q92843); test: Alphascreen GST competition assay, Bcl-w vs biotinylated Bim BH3-26 peptide; type: binding; conditions: for IC50: read-out: Bcl-wΔ29 IC50
T1 construct: GST tagged Bclw ΔC29 protein
T1 sequence (Q92843 1-164 limits assumed): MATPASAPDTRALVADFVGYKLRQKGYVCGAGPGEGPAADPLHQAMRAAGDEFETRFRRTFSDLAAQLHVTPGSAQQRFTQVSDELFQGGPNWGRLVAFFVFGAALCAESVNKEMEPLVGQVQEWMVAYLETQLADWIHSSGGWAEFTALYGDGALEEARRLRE

GST tagged Mcl-1 protein = GST tagged Mcl-1 protein (Homo sapiens, UniProt Q07820); test: Alphascreen GST competition assay, Mcl-1 vs biotinylated Bak BH3 peptide; conditions: competition with biotinylated Bak BH3 peptide (4.0 nM), Mcl-1 0.4 nM; n.b. = not binding in the assay conditions
Chain of GST tagged Mcl-1 protein (Q07820 whole entry): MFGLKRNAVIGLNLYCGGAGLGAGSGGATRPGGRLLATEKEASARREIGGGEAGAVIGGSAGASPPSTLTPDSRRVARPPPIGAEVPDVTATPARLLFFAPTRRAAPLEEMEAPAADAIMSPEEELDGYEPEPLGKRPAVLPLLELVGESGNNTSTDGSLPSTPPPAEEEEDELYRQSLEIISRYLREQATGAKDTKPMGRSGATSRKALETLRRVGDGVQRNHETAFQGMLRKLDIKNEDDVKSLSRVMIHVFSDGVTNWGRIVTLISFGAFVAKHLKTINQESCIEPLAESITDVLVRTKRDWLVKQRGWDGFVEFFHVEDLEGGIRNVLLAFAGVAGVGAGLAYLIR

[2] = target: T2, GST tagged Bcl-xL ΔC25 protein (Homo sapiens, UniProt Q07817); test: Alphascreen GST competition assay, Bcl-xL vs biotinylated Bim BH3-26 peptide; conditions: competition with biotinylated Bim BH3-26 peptide (5.0 nM), Bcl-xL 0.6 nM, n.b. = not binding in the assay conditions; for IC50: read-out: Bcl-xLΔ25 IC50
T2 construct: GST tagged Bcl-xL ΔC25 protein
T2 sequence (Q07817 1-208 limits assumed): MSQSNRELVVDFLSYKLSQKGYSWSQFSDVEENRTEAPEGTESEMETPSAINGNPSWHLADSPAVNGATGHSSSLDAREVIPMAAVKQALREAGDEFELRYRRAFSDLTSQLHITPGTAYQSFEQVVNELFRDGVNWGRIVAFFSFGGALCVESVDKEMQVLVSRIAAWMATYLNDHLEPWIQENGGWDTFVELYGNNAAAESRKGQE

[3] = footnote a: tested in a separate experiment
[4] = competition with biotinylated Bim BH3-26 peptide (3.0 nM), Bcl-w 0.05 nM, n.b. = not binding in the assay conditions

Structure (SMILES): O=C(O)[C@H](CSCc1ccccc1)NC(=O)N(C(=O)c1cccc(-c2ccccc2)c1)C1CCCCC1 [(10)]
IC50 [1, 3]: 26 µM

Structure (SMILES): CCCN(C(=O)N[C@@H](CSCc1ccccc1)C(=O)O)C(=O)c1ccc(/C=C/c2ccccc2)cc1 [(86)]
Mcl-1 IC50 (μM) (GST tagged Mcl-1 protein): n.b.^b

Structure (SMILES): CCCN(C(=O)N[C@@H](CSCC(C)C)C(=O)O)C(=O)c1cccc(C#Cc2ccccc2OC)c1 [(146)]
Mcl-1 IC50 (μM) (GST tagged Mcl-1 protein): n.b.^b

Structure (SMILES): CCCN(C(=O)N[C@@H](CSCc1ccccc1)C(=O)O)C(=O)c1cccc(C#Cc2ccc(Br)cc2)c1 [(134)]
IC50 (GST tagged Mcl-1 protein): 181 µM | IC50 [2]: 51 µM

Structure (SMILES): CCCN(C(=O)N[C@@H](CSC(C)C)C(=O)O)C(=O)c1cccc(C#Cc2ccccc2)c1 [(92)]
Mcl-1 IC50 (μM) (GST tagged Mcl-1 protein): n.b.^b

Structure (SMILES): CCCN(C(=O)N[C@@H](CSCC(C)C)C(=O)O)C(=O)c1cccc(C#Cc2cccc(F)c2)c1 [(140)]
Mcl-1 IC50 (μM) (GST tagged Mcl-1 protein): n.b.^b

Structure (SMILES): O=C([C@H](CSCc1ccccc1)NC(=O)N(Cc1cccc2ccccc12)C(=O)c1cccc(-c2ccc(F)cc2)c1)N1CCOCC1 [(72)]
Bcl-wΔ29 IC50 (μM) [1, 4]: n.b.^b

Structure (SMILES): CCCN(C(=O)N[C@@H](CSCc1ccc(OC)cc1)C(=O)O)C(=O)c1cccc(C#Cc2ccccc2)c1 [(115)]
IC50 [2]: 32 µM

Structure (SMILES): CCCN(C(=O)N[C@@H](CSCc1ccccc1)C(=O)O)C(=O)c1cccc(/C=C/c2ccccc2)c1 [(87)]
IC50 (GST tagged Mcl-1 protein): 161 µM | IC50 [1, 4]: 99 µM | IC50 [2]: 151 µM

Next, values leading:

IC50 [2]: 44 µM
Structure (SMILES): CCCN(C(=O)N[C@@H](CSCC(C)CC)C(=O)O)C(=O)c1cccc(C#Cc2ccccc2)c1 (stereo partly shown) [(125)]

Bcl-xLΔ25 IC50 (μM) [2]: n.b.^b
Structure (SMILES): O=C(O)[C@H](CSCc1ccccc1)NC(=O)N(Cc1ccc(Cl)c(Cl)c1)C(=O)c1ccc(-c2ccccc2)cc1 [(85)]

IC50 (GST tagged Mcl-1 protein): 154 µM | IC50 [1, 4]: 49 µM | IC50 [2]: 51 µM
Structure (SMILES): CCCN(C(=O)N[C@@H](CSCc1ccccc1)C(=O)O)C(=O)c1cccc(CCc2ccccc2)c1 [(88)]

Bcl-wΔ29 IC50 (μM) [1, 4]: n.b.^b
Structure (SMILES): CCCN(C(=O)NCC(=O)O)C(=O)c1cccc(-c2ccccc2)c1 [(71)]

IC50 [1, 3]: 14 µM
Structure (SMILES): O=C(O)[C@H](CSCc1ccccc1)NC(=O)N(CC1CCCCC1)C(=O)c1cccc(-c2ccccc2)c1 [(9)]

IC50 [2]: 53 µM
Structure (SMILES): CCCN(C(=O)N[C@@H](CSCC(C)C)C(=O)NS(=O)(=O)c1cccc(-c2ccccc2)c1)C(=O)c1cccc(C#Cc2ccccc2)c1 [(155)]

IC50 (GST tagged Mcl-1 protein): 251 µM | IC50 [1, 4]: 102 µM | IC50 [2]: 182 µM
Structure (SMILES): CCCN(C(=O)CCCc1ccccc1)C(=O)N[C@@H](CSCc1ccccc1)C(=O)O [(106)]

IC50 (GST tagged Mcl-1 protein): 94 µM | IC50 [1, 4]: 35 µM | IC50 [2]: 73 µM
Structure (SMILES): CCCN(C(=O)N[C@@H](CSCCCc1ccccc1)C(=O)O)C(=O)c1cccc(C#Cc2ccccc2)c1 [(95)]

Bcl-xLΔ25 IC50 (μM) [2]: n.b.^b
Structure (SMILES): CCCN(C(=O)N[C@@H](CSCC(C)C)C(=O)O)C(=O)c1cccc(C#Cc2ccncc2)c1 [(150)]

IC50 [1, 4]: 49 µM
Structure (SMILES): CC(C)CCN(C(=O)N[C@@H](CSCc1ccccc1)C(=O)O)C(=O)c1ccc(-c2ccccc2)cc1 [(42)]
